# ChEMBL document CHEMBL3046904, “Synthesis, characterization, bioactivity, and POM analyses of isothiochromeno[3,4-e][1,2]oxazines” (2013)
# Experiments:
# Assay type in all cases: functional
# HT-29 = test: Cytotoxicity against Homo sapiens (human) HT-29 after 48 hr by Alamar Blue assay; conditions: HT-29, 48 h
# HCT-15 = test: Cytotoxicity against Homo sapiens (human) HCT15 after 48 hr by Alamar Blue assay; conditions: HCT-15, 48 h
# HCC 2998 = test: Cytotoxicity against Homo sapiens (human) HCC2998 after 48 hr by Alamar Blue assay; conditions: HCC 2998, 48 h
# COLO 205 = test: Cytotoxicity against Homo sapiens (human) COLO205 after 48 hr by Alamar Blue assay; conditions: COLO 205, 48 h
# T47D = test: Cytotoxicity against Homo sapiens (human) T47D after 48 hr by Alamar Blue assay
# MDA-MB-435 = test: Cytotoxicity against Homo sapiens (human) MDA-MB-435 after 48 hr by Alamar Blue assay; conditions: MDA-MB-435, 48 h
# Hs-578T = test: Cytotoxicity against Homo sapiens (human) Hs 578T after 48 hr by Alamar Blue assay
# NCI/ADR-RES = test: Cytotoxicity against Homo sapiens (human) NCI/ADR-RES after 48 hr by Alamar Blue assay
# MCF7 = test: Cytotoxicity against Homo sapiens (human) MCF7 after 48 hr by Alamar Blue assay; conditions: MCF7, 48 h
# DU-145 = test: Cytotoxicity against Homo sapiens (human) DU145 after 48 hr by Alamar Blue assay; conditions: DU-145, 48 h
# UO-31 = test: Cytotoxicity against Homo sapiens (human) UO31 after 48 hr by Alamar Blue assay; conditions: UO-31, 48 h
# SN12C = test: Cytotoxicity against Homo sapiens (human) SN12C after 48 hr by Alamar Blue assay
# TK-10 = test: Cytotoxicity against Homo sapiens (human) TK10 after 48 hr by Alamar Blue assay; conditions: TK-10, 48 h
# RXF 393 = test: Cytotoxicity against Homo sapiens (human) RXF393 after 48 hr by Alamar Blue assay; conditions: RXF 393, 48 h
# CAKI-1 = test: Cytotoxicity against Homo sapiens (human) Caki1 after 48 hr by Alamar Blue assay; conditions: CAKI-1, 48 h
# ACHN = test: Cytotoxicity against Homo sapiens (human) ACHN after 48 hr by Alamar Blue assay
# A549 = test: Cytotoxicity against Homo sapiens (human) A549 after 48 hr by Alamar Blue assay; conditions: A549, 48 h
# RPMI-8226 = test: Cytotoxicity against Homo sapiens (human) RPMI8226 after 48 hr by Alamar Blue assay; conditions: RPMI-8226, 48 h
# SR = test: Cytotoxicity against Homo sapiens (human) SR after 48 hr by Alamar Blue assay
# MOLT-4 = test: Cytotoxicity against Homo sapiens (human) MOLT4 after 48 hr by Alamar Blue assay; conditions: MOLT-4, 48 h
# K562 = test: Cytotoxicity against Homo sapiens (human) K562 after 48 hr by Alamar Blue assay; conditions: K562, 48 h
# [1] = Cytotoxicity against Homo sapiens (human) HL-60(TB) after 48 hr by Alamar Blue assay; conditions: HL-60, 48 h
# SF-268 [2] = test: Cytotoxicity against Homo sapiens (human) SF268 assessed as cell growth at 10^-4 M after 48 hr by Alamar Blue assay; conditions: SF-268, 48 h, read-out: Activity
# NCI-H460 [3] = test: Cytotoxicity against Homo sapiens (human) NCI-H460 assessed as cell growth at 10^-4 M after 48 hr by Alamar Blue assay; conditions: NCI-H460, 48 h, read-out: Activity
# HOP-92 = test: Cytotoxicity against Homo sapiens (human) HOP92 after 48 hr by Alamar Blue assay; conditions: HOP-92, 48 h
# NCI-H226 = test: Cytotoxicity against Homo sapiens (human) NCI-H226 after 48 hr by Alamar Blue assay; conditions: NCI-H226, 48 h
# EKVX = test: Cytotoxicity against Homo sapiens (human) EKVX after 48 hr by Alamar Blue assay
# HOP-62 = test: Cytotoxicity against Homo sapiens (human) HOP62 after 48 hr by Alamar Blue assay; conditions: HOP-62, 48 h
# 786-0 = test: Cytotoxicity against Homo sapiens (human) 786-0 after 48 hr by Alamar Blue assay; conditions: 786-0, 48 h
# OVCAR-8 = test: Cytotoxicity against Homo sapiens (human) OVCAR8 after 48 hr by Alamar Blue assay; conditions: OVCAR-8, 48 h
# OVCAR-4 = test: Cytotoxicity against Homo sapiens (human) OVCAR4 after 48 hr by Alamar Blue assay; conditions: OVCAR-4, 48 h
# OVCAR-5 = test: Cytotoxicity against Homo sapiens (human) OVCAR5 after 48 hr by Alamar Blue assay; conditions: OVCAR-5, 48 h
# OVCAR-3 = test: Cytotoxicity against Homo sapiens (human) OVCAR3 after 48 hr by Alamar Blue assay; conditions: OVCAR-3, 48 h
# UACC-62 = test: Cytotoxicity against Homo sapiens (human) UACC62 after 48 hr by Alamar Blue assay; conditions: UACC-62, 48 h
# UACC-257 = test: Cytotoxicity against Homo sapiens (human) UACC257 after 48 hr by Alamar Blue assay; conditions: UACC-257, 48 h
# SK-MEL-28 = test: Cytotoxicity against Homo sapiens (human) SK-MEL-28 after 48 hr by Alamar Blue assay; conditions: SK-MEL-28, 48 h
# SK-MEL-2 = test: Cytotoxicity against Homo sapiens (human) SK-MEL-2 after 48 hr by Alamar Blue assay; conditions: SK-MEL-2, 48 h
# Malme-3M = test: Cytotoxicity against Homo sapiens (human) MALME-3M after 48 hr by Alamar Blue assay
# M14 = test: Cytotoxicity against Homo sapiens (human) M14 after 48 hr by Alamar Blue assay; conditions: M14, 48 h
# LOX IMVI = test: Cytotoxicity against Homo sapiens (human) LOXIMVI after 48 hr by Alamar Blue assay
# U-251 = test: Cytotoxicity against Homo sapiens (human) U251 after 48 hr by Alamar Blue assay; conditions: U-251, 48 h
# SNB-19 = test: Cytotoxicity against Homo sapiens (human) SNB19 after 48 hr by Alamar Blue assay; conditions: SNB-19, 48 h
# SF-295 = test: Cytotoxicity against Homo sapiens (human) SF295 after 48 hr by Alamar Blue assay; conditions: SF-295, 48 h
# SF-268 [4] = test: Cytotoxicity against Homo sapiens (human) SF268 after 48 hr by Alamar Blue assay; conditions: SF-268, 48 h
# NCI-H460 [5] = test: Cytotoxicity against Homo sapiens (human) NCI-H460 after 48 hr by Alamar Blue assay; conditions: NCI-H460, 48 h
# NCI-H322M = test: Cytotoxicity against Homo sapiens (human) NCI-H322M after 48 hr by Alamar Blue assay
# NCI-H23 = test: Cytotoxicity against Homo sapiens (human) NCI-H23 after 48 hr by Alamar Blue assay; conditions: NCI-H23, 48 h
compound,measurement,setting,value
Cc1ccc(C2=C3SC=c4ccccc4=C3ON=C2c2ccc(Cl)cc2)cc1,GI50,HT-29,> 100 µM
same,GI50,HCT-15,81.2 µM
same,GI50,HCC 2998,> 100 µM
same,GI50,COLO 205,46.2 µM
same,GI50,T47D,31.4 µM
same,GI50,MDA-MB-435,44.2 µM
same,GI50,Hs-578T,> 100 µM
same,GI50,NCI/ADR-RES,> 100 µM
same,GI50,MCF7,31.2 µM
same,GI50,DU-145,> 100 µM
same,GI50,UO-31,> 100 µM
same,GI50,SN12C,11.3 µM
same,GI50,TK-10,> 100 µM
same,GI50,RXF 393,> 100 µM
same,GI50,CAKI-1,> 100 µM
same,GI50,ACHN,> 100 µM
same,GI50,A549,> 100 µM
same,GI50,RPMI-8226,11.8 µM
same,GI50,SR,36.5 µM
same,GI50,MOLT-4,12.5 µM
same,GI50,K562,20.6 µM
same,GI50,[1],0.0182 nM
same,growth at 100 µM,SF-268 [2],37%
same,growth at 100 µM,NCI-H460 [3],91%
same,GI50,HOP-92,26.5 µM
same,GI50,NCI-H226,> 100 µM
same,GI50,EKVX,> 100 µM
same,GI50,HOP-62,> 100 µM
same,GI50,786-0,21.2 µM
same,GI50,OVCAR-8,11.6 µM
same,GI50,OVCAR-4,> 100 µM
same,GI50,OVCAR-5,> 100 µM
same,GI50,OVCAR-3,> 100 µM
same,GI50,UACC-62,> 100 µM
same,GI50,UACC-257,25.6 µM
same,GI50,SK-MEL-28,> 100 µM
same,GI50,SK-MEL-2,> 100 µM
same,GI50,Malme-3M,22.1 µM
same,GI50,M14,> 100 µM
same,GI50,LOX IMVI,50 µM
same,GI50,U-251,20 µM
same,GI50,SNB-19,> 100 µM
same,GI50,SF-295,> 100 µM
same,GI50,SF-268 [4],12.1 µM
same,GI50,NCI-H460 [5],> 100 µM
same,GI50,NCI-H322M,> 100 µM
same,GI50,NCI-H23,16.6 µM
Cc1ccc(C2=NOC3=c4ccccc4=CSC3=C2c2ccc(C)cc2)cc1,GI50,HT-29,> 100 µM
same,GI50,HCT-15,> 100 µM
same,GI50,HCC 2998,> 100 µM
same,GI50,COLO 205,> 100 µM
same,GI50,T47D,25.4 µM
same,GI50,MDA-MB-435,> 100 µM
same,GI50,Hs-578T,> 100 µM
same,GI50,NCI/ADR-RES,> 100 µM
same,GI50,MCF7,> 100 µM
same,GI50,DU-145,> 100 µM
same,GI50,UO-31,> 100 µM
same,GI50,SN12C,20 µM
same,GI50,TK-10,> 100 µM
same,GI50,RXF 393,> 100 µM
same,GI50,CAKI-1,> 100 µM
same,GI50,ACHN,> 100 µM
same,GI50,A549,> 100 µM
same,GI50,RPMI-8226,69.2 µM
same,GI50,SR,42 µM
same,GI50,MOLT-4,37.1 µM
same,GI50,K562,22.9 µM
same,GI50,[1],> 0.1 nM
same,growth at 100 µM,SF-268 [2],91%
same,growth at 100 µM,NCI-H460 [3],93%
same,GI50,HOP-92,68.1 µM
same,GI50,NCI-H226,> 100 µM
same,GI50,EKVX,> 100 µM
same,GI50,HOP-62,> 100 µM
same,GI50,786-0,> 100 µM
same,GI50,OVCAR-8,40 µM
same,GI50,OVCAR-4,> 100 µM
same,GI50,OVCAR-5,> 100 µM
same,GI50,OVCAR-3,94.8 µM
same,GI50,UACC-62,> 100 µM
same,GI50,UACC-257,> 100 µM
same,GI50,SK-MEL-28,> 100 µM
same,GI50,SK-MEL-2,> 100 µM
same,GI50,Malme-3M,> 100 µM
same,GI50,M14,> 100 µM
same,GI50,LOX IMVI,> 100 µM
same,GI50,U-251,> 100 µM
same,GI50,SNB-19,> 100 µM
same,GI50,SF-295,> 100 µM
same,GI50,SF-268 [4],> 100 µM
same,GI50,NCI-H460 [5],> 100 µM
same,GI50,NCI-H322M,> 100 µM
same,GI50,NCI-H23,> 100 µM
